Results reported in patent US11999794B2, “Human mesothelin chimeric antigen receptors and uses thereof” (Novartis AG, priority 2013, dated 2024).
Marks after values point to notes of the source that are not given here.

Experiments:
Format in all cases: in vivo, human
B/Brisbane/60/2008 = assay: Hemagglutination inhibition titers and seroconversion; conditions: for Percent of subjects with seroconversion to influenza 4 weeks after vaccination: B; for GMT ratio, B: GMT at week 4 post vaccination/GMT at baseline
Method: (§1) The trial was observer-blind because the placebo in the RAD001 0.5 mg daily and 20 mg weekly cohorts differed slightly from the RAD001 tablets in those cohorts. […] The treatment duration for all cohorts was 6 weeks during which time subjects underwent safety evaluations in the clinic every 2 weeks. After subjects had been dosed for 4 weeks, RAD001 steady state levels were measured pre-dose and at one hour post dose. After completing the 6 week course of study drug, subjects were given a 2 week drug free break to reverse any possible RAD001-induced immunosuppression, and then were given a 2012 seasonal influenza vaccination (Agrippal®, Novartis Vaccines and Diagnostics, Siena, Italy) containing the strains H1N1 A/California/07/2009, H3N2 A/Victoria/210/2009, B/Brisbane/60/2008. Four weeks after influenza vaccination, subjects had serum collected for influenza titer measurements. Antibody titers to the 3 influenza vaccine strains as well as to 2 heterologous strains (A/H1N1 strain A/New Jersey/8/76 and A/H3N2 strain A/Victoria/361/11) were measured by standard hemagglutination inhibition assay (Kendal, A P et al. (1982) Concepts and procedures for laboratory-based influenza surveillance. Atlanta: Centers for Disease Control and Prevention B17-B35). Levels of IgG and IgM specific for the A/H1N1/California/07/2009 were measured in serum samples taken before and 4 weeks after influenza vaccination as described previously (Spensieri, F. et al. (2013) Proc. Natl. Acad. Sci. USA 110:14330-14335). Results were expressed as fluorescence intensity.
(§2) The ability of RAD001 to improve immune function in elderly volunteers was evaluated by measuring the serologic response to the 2012 seasonal influenza vaccine. The hemagglutination inhibition (HI) geometric mean titers (GMT) to each of the 3 influenza vaccine strains at baseline and 4 weeks after influenza vaccination are provided in Table 10. The primary analysis variable was the HI GMT ratio (4 weeks post vaccination/baseline). […] This endpoint was chosen because a 1.2-fold increase in the influenza GMT ratio induced by the MF-59 vaccine adjuvant was associated with a decrease in influenza illness (Iob, A et al. (2005) Epidemiol Infect 133:687-693).
(§3) Rates of seroconversion 4 weeks after influenza vaccination were also evaluated. Seroconversion was defined as the change from a negative pre-vaccination titer (i.e., HI titer <1:10) to post-vaccination HI titer ≥1:40 or at least 4-fold increase from a non-negative (≥1:10) pre-vaccination HI titer.

[1] = tested on: H1N1 A/California/07/2009; assay: as above; conditions: for Percent of subjects with seroconversion to influenza 4 weeks after vaccination: H1N1; for GMT ratio, A/H1N1: GMT at week 4 post vaccination/GMT at baseline
Method: as §1, §2, §3

H3N2 A/Victoria/210/2009 = assay: as above; conditions: for Percent of subjects with seroconversion to influenza 4 weeks after vaccination: H3N2; for GMT ratio, A/H3N2: GMT at week 4 post vaccination/GMT at baseline
Method: as §1, §2, §3

[2] = Adverse event and safety assessment of RAD001 in elderly volunteers; conditions: for Incidence of treatment-related AE: Blood cholesterol increased / Incidence of treatment-related AE: Conjunctivitis / Incidence of treatment-related AE: Diarrhea / Incidence of treatment-related AE: Dry mouth / Incidence of treatment-related AE: Dyspepsia / Incidence of treatment-related AE: Erythema / Incidence of treatment-related AE: Fatigue / Incidence of treatment-related AE: Headache / Incidence of treatment-related AE: Insomnia / Incidence of treatment-related AE: Limb discomfort / Incidence of treatment-related AE: Low density lipoprotein increased / Incidence of treatment-related AE: Mouth ulceration / Incidence of treatment-related AE: Mucosal inflammation / Incidence of treatment-related AE: Neutropenia / Incidence of treatment-related AE: Oral pain / Incidence of treatment-related AE: Paresthesia oral / Incidence of treatment-related AE: Pruritus / Incidence of treatment-related AE: Stomatitis / Incidence of treatment-related AE: Thrombocytopenia / Incidence of treatment-related AE: Tongue ulceration / Incidence of treatment-related AE: Urinary tract infection / Treatment-related AEs: Patients with AE(s) / Treatment-related AEs: Total AE(s): N = 53
Method: Adverse event assessment and blood collection for hematologic and biochemical safety assessments were performed during study visits. Adverse event information was also collected in diaries that subjects filled out at home during the 6 weeks they were on study drug. Data on all adverse events were collected from the time of informed consent until 30 days after the last study visit. Events were classified by the investigators as mild, moderate or severe.

[3] = Intention to Treat Population, 0.5 mg, N = 48
[4] = Intention to Treat Population, 5 mg, N = 49
[5] = Intention to Treat Population, 20 mg, N = 48
[6] = Subjects with Baseline Titers <=40, 0.5 mg
[7] = Subjects with Baseline Titers <=40, 5 mg
[8] = Subjects with Baseline Titers <=40, 20 mg

## CO[C@H]1C[C@@H]2CC[C@@H](C)[C@@](O)(O2)C(=O)C(=O)N2CCCC[C@H]2C(=O)O[C@H]([C@H](C)C[C@@H]2CC[C@@H](OCCO)[C@H](OC)C2)CC(=O)[C@H](C)/C=C(\C)[C@@H](O)[C@@H](OC)C(=O)[C@H](C)C[C@H](C)/C=C/C=C/C=C/1C [RAD001, (1R,9S,12S,15R,16E,18R,19R,21R,23 S,24E,26E,28E,30S,32S,35R)-1,18-dihydroxy-12-{(1R)-2-[(1 S,3R,4R)-4-(2-hydroxyethoxy)-3-methoxycyclohexyl]-1-methylethyl}-19,30-dimethoxy-15,17,21,23,29,35-hexamethyl-11,36-dioxa-4-aza-tricyclo[30.3.1.04,9]hexatriaconta-16,24,26,28-tetraene-2,3,10,14,20-pentaone]
B/Brisbane/60/2008; [3]
  Percent of subjects with seroconversion to influenza 4 weeks after vaccination: 27%
B/Brisbane/60/2008; [4]
  Percent of subjects with seroconversion to influenza 4 weeks after vaccination: 22%
B/Brisbane/60/2008; [5]
  Percent of subjects with seroconversion to influenza 4 weeks after vaccination: 19%
B/Brisbane/60/2008; [6]
  Percent of subjects with seroconversion to influenza 4 weeks after vaccination: 40* %
B/Brisbane/60/2008; [7]
  Percent of subjects with seroconversion to influenza 4 weeks after vaccination: 33%
B/Brisbane/60/2008; [8]
  Percent of subjects with seroconversion to influenza 4 weeks after vaccination: 28%
B/Brisbane/60/2008; RAD001 5 mg weekly, N = 49
  GMT ratio, B: 2.2
B/Brisbane/60/2008; RAD001 20 mg weekly, N = 49
  GMT ratio, B: 2.1
[1]; [3]
  Percent of subjects with seroconversion to influenza 4 weeks after vaccination: 27%
[1]; [4]
  Percent of subjects with seroconversion to influenza 4 weeks after vaccination: 27%
[1]; [5]
  Percent of subjects with seroconversion to influenza 4 weeks after vaccination: 17%
[1]; [6]
  Percent of subjects with seroconversion to influenza 4 weeks after vaccination: 42%
[1]; [7]
  Percent of subjects with seroconversion to influenza 4 weeks after vaccination: 45%
[1]; [8]
  Percent of subjects with seroconversion to influenza 4 weeks after vaccination: 36%
[1]; RAD001 5 mg weekly, N = 49
  GMT ratio, A/H1N1: 2.5
[1]; RAD001 20 mg weekly, N = 49
  GMT ratio, A/H1N1: 1.8
H3N2 A/Victoria/210/2009; [3]
  Percent of subjects with seroconversion to influenza 4 weeks after vaccination: 27%
H3N2 A/Victoria/210/2009; [4]
  Percent of subjects with seroconversion to influenza 4 weeks after vaccination: 24%
H3N2 A/Victoria/210/2009; [5]
  Percent of subjects with seroconversion to influenza 4 weeks after vaccination: 25%
H3N2 A/Victoria/210/2009; [6]
  Percent of subjects with seroconversion to influenza 4 weeks after vaccination: 64%
H3N2 A/Victoria/210/2009; [7]
  Percent of subjects with seroconversion to influenza 4 weeks after vaccination: 53%
H3N2 A/Victoria/210/2009; [8]
  Percent of subjects with seroconversion to influenza 4 weeks after vaccination: 71%
H3N2 A/Victoria/210/2009; RAD001 5 mg weekly, N = 49
  GMT ratio, A/H3N2: 2.0
H3N2 A/Victoria/210/2009; RAD001 20 mg weekly, N = 49
  GMT ratio, A/H3N2: 2.1
[2]; 0.5 mg daily
  Incidence of treatment-related AE: Blood cholesterol increased: 2 (3.8%) n (%)
  Incidence of treatment-related AE: Conjunctivitis: 0 n (%)
  Incidence of treatment-related AE: Diarrhea: 1 (1.9%) n (%)
  Incidence of treatment-related AE: Dry mouth: 0 n (%)
  Incidence of treatment-related AE: Dyspepsia: 0 n (%)
  Incidence of treatment-related AE: Erythema: 0 n (%)
  Incidence of treatment-related AE: Fatigue: 0 n (%)
  Incidence of treatment-related AE: Headache: 0 n (%)
  Incidence of treatment-related AE: Insomnia: 1 (1.9%) n (%)
  Incidence of treatment-related AE: Limb discomfort: 0 n (%)
  Incidence of treatment-related AE: Low density lipoprotein increased: 2 (3.8%) n (%)
  Incidence of treatment-related AE: Mouth ulceration: 6 (11.3%) n (%)
  Incidence of treatment-related AE: Mucosal inflammation: 0 n (%)
  Incidence of treatment-related AE: Neutropenia: 0 n (%)
  Incidence of treatment-related AE: Oral pain: 0 n (%)
  Incidence of treatment-related AE: Paresthesia oral: 2 (3.8%) n (%)
  Incidence of treatment-related AE: Pruritus: 0 n (%)
  Incidence of treatment-related AE: Stomatitis: 0 n (%)
  Incidence of treatment-related AE: Thrombocytopenia: 0 n (%)
  Incidence of treatment-related AE: Tongue ulceration: 3 (5.7%) n (%)
  Incidence of treatment-related AE: Urinary tract infection: 0 n (%)
  Treatment-related AEs: Patients with AE(s): 22 (41.5%) n (%)
  Treatment-related AEs: Total AE(s): 35
[2]; 5 mg weekly
  Incidence of treatment-related AE: Blood cholesterol increased: 2 (3.8%) n (%)
  Incidence of treatment-related AE: Conjunctivitis: 2 (3.8%) n (%)
  Incidence of treatment-related AE: Diarrhea: 4 (7.5%) n (%)
  Incidence of treatment-related AE: Dry mouth: 0 n (%)
  Incidence of treatment-related AE: Dyspepsia: 3 (5.7%) n (%)
  Incidence of treatment-related AE: Erythema: 2 (3.8%) n (%)
  Incidence of treatment-related AE: Fatigue: 2 (3.8%) n (%)
  Incidence of treatment-related AE: Headache: 2 (3.8%) n (%)
  Incidence of treatment-related AE: Insomnia: 2 (3.8%) n (%)
  Incidence of treatment-related AE: Limb discomfort: 2 (3.8%) n (%)
  Incidence of treatment-related AE: Low density lipoprotein increased: 1 (1.9%) n (%)
  Incidence of treatment-related AE: Mouth ulceration: 2 (3.8%) n (%)
  Incidence of treatment-related AE: Mucosal inflammation: 0 n (%)
  Incidence of treatment-related AE: Neutropenia: 0 n (%)
  Incidence of treatment-related AE: Oral pain: 2 (3.8%) n (%)
  Incidence of treatment-related AE: Paresthesia oral: 0 n (%)
  Incidence of treatment-related AE: Pruritus: 2 (3.8%) n (%)
  Incidence of treatment-related AE: Stomatitis: 0 n (%)
  Incidence of treatment-related AE: Thrombocytopenia: 0 n (%)
  Incidence of treatment-related AE: Tongue ulceration: 1 (1.9%) n (%)
  Incidence of treatment-related AE: Urinary tract infection: 0 n (%)
  Treatment-related AEs: Patients with AE(s): 20 (37.7%) n (%)
  Treatment-related AEs: Total AE(s): 46
[2]; 20 mg weekly
  Incidence of treatment-related AE: Blood cholesterol increased: 2 (3.8%) n (%)
  Incidence of treatment-related AE: Conjunctivitis: 0 n (%)
  Incidence of treatment-related AE: Diarrhea: 1 (1.9%) n (%)
  Incidence of treatment-related AE: Dry mouth: 2 (3.8%) n (%)
  Incidence of treatment-related AE: Dyspepsia: 2 (3.8%) n (%)
  Incidence of treatment-related AE: Erythema: 0 n (%)
  Incidence of treatment-related AE: Fatigue: 4 (7.5%) n (%)
  Incidence of treatment-related AE: Headache: 9 (17.0%) n (%)
  Incidence of treatment-related AE: Insomnia: 1 (1.9%) n (%)
  Incidence of treatment-related AE: Limb discomfort: 0 n (%)
  Incidence of treatment-related AE: Low density lipoprotein increased: 2 (3.8%) n (%)
  Incidence of treatment-related AE: Mouth ulceration: 9 (17.0%) n (%)
  Incidence of treatment-related AE: Mucosal inflammation: 2 (3.8%) n (%)
  Incidence of treatment-related AE: Neutropenia: 3 (5.7%) n (%)
  Incidence of treatment-related AE: Oral pain: 1 (1.9%) n (%)
  Incidence of treatment-related AE: Paresthesia oral: 0 n (%)
  Incidence of treatment-related AE: Pruritus: 1 (1.9%) n (%)
  Incidence of treatment-related AE: Stomatitis: 2 (3.8%) n (%)
  Incidence of treatment-related AE: Thrombocytopenia: 2 (3.8%) n (%)
  Incidence of treatment-related AE: Tongue ulceration: 0 n (%)
  Incidence of treatment-related AE: Urinary tract infection: 2 (3.8%) n (%)
  Treatment-related AEs: Patients with AE(s): 27 (50.9%) n (%)
  Treatment-related AEs: Total AE(s): 109
[2]; human, in vivo
  deaths during the study: No deaths
[2]; majority of mild severity
  most common related AE: mouth ulcer
[2]; mouth ulcers, 20 mg weekly
  severe AEs assessed as related: Only one severe AE
[2]; particularly 0.5 mg daily and 5 mg weekly
  tolerability: well tolerated
[2]; three subjects, four SAEs
  serious adverse events (SAEs), relation to drug: assessed as unrelated to RAD001
